What all share (assay): NCI-60 cell line screen, 48 h
Assay [1] deals with DMS-114.
In assay [2] the test system is DMS-273.
For assay [3], the system named is HOP-18.
Assay [4] relates to KM-20L2.
The test system of assay [5] is LXFL 529.
Assay [6] relates to M19-MEL.
Assay [7] relates to RXF 631.
Assay [8] has as its system XF498.
Assay [9] relates to SNB-78.

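Interpolation was linear, between the two tested concentrations surrounding the appropriate level; five concentrations were tested over 48 hours in 96-well plates. Here, GI50 denotes the concentration required for 50% inhibition of growth.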 Activity calls are given as the source filed them. No stated cut-off is given here; in the data, active = GI50 up to about 1.1 µM and inactive = higher.

As for `CCOP1(=O)C=C(C)C(Cl)=C(C)C1` (stereo not given), the GI50 is 17.5 µM (inactive) in assay [1]; 13.6 µM (inactive) in assay [2]; 68.7 µM (inactive) in assay [3]; 32.7 µM (inactive) in assay [4]; 17.3 µM (inactive) in assay [5]; 21.1 µM (inactive) in assay [6]. Also, the GI50 in assay [7] was 2.75 µM (inactive); in [8], 26.8 µM (inactive).
On to `COc1cc2cc(OC(C)=O)c3cc4c(cc3c2c(OC)c1OC)OCO4`, for which the GI50 in assay [1], in assay [2], in [3], in [4], in [5] and in [6] was > 100 µM (inactive) throughout. Moreover, the GI50 in assay [7], in assay [9] and in [8] was > 100 µM (inactive) in each case.
`CN1CCC(=O)/C(=C/c2ccccc2)C1`: the GI50 is 9.68 µM (inactive) in assay [1]; 6.55 µM (inactive) in [2]; 18.2 µM (inactive) in assay [3]; 12.4 µM (inactive) in assay [4]; 6.32 µM (inactive) in assay [5]; 5.45 µM (inactive) in assay [6]. For the same molecule, the GI50 in [7] was 16.7 µM (inactive); in [9], 19.6 µM (inactive); in assay [8], 18.7 µM (inactive).
Regarding `O=C(/C=C/c1ccccc1O)c1cccc2ccccc12`, the GI50 is 21.4 µM (inactive) in assay [1]; 54.5 µM (inactive) in assay [2]; 28.1 µM (inactive) in [3]; > 100 µM (inactive) in assay [4]; 36.2 µM (inactive) in assay [5]; > 100 µM (inactive) in assay [6]. In addition, the GI50 is > 100 µM (inactive) in assay [7], > 100 µM (inactive) in assay [9] and 25.8 µM (inactive) in [8].
`O=C1/C(=C/c2ccc(Br)cc2)CCC/C1=C\c1ccc(Br)cc1`: the GI50 in assay [1] was 13.2 µM (inactive); in [2], 3.57 µM (inactive); in assay [3], 13.6 µM (inactive); in assay [4], 5.22 µM (inactive); in [5] it was 3.82 µM (inactive); in assay [6], 4.3 µM (inactive). The GI50 is 5.05 µM (inactive) in assay [7], 18.7 µM (inactive) in assay [9] and 21.8 µM (inactive) in assay [8].
As to `Nc1nc2[nH]cnc2c(=S)[nH]1` [THIOGUANINE], the GI50 in assay [1] was 0.849 µM (active); in [2], 0.445 µM (active); in assay [3], 5.64 µM (inactive); in assay [4], 0.782 µM (active); in assay [5], 8.45 µM (inactive); in assay [6] it was 9.82 µM (inactive). The GI50 was 0.527 µM (active) in assay [7], 2.23 µM (inactive) in assay [9] and 1.09 µM (active) in [8].
For `O=C1c2cccc3c(Cl)ccc(c23)C(=O)N1CCCN1CCN(CCCN2C(=O)c3cccc4c(Cl)ccc(c34)C2=O)CC1`, the GI50 in [1] was > 100 µM (inactive); in assay [2], > 100 µM (inactive); in [3], > 100 µM (inactive); in [4], 46.2 µM (inactive); in [5] it was > 100 µM (inactive); in assay [7] it was 76.7 µM (inactive). The results for the GI50 in assay [9] and in [8] were 90.8 µM (inactive) and > 100 µM (inactive), respectively.
As to `Cc1ccc(SCC(=O)C2=C(O)CCCC2=O)cc1`, the GI50 in [1], in assay [2], in assay [3], in [4], in assay [5] and in assay [6] was > 100 µM (inactive) each time. Also, the GI50 in assay [7], in [9] and in assay [8] was > 100 µM (inactive) in each case.

The values above are taken from ChEMBL document CHEMBL1201862, “PubChem BioAssay data set” (2004).
